# Results taken from patent US9359645B2, “Methods for detecting diabetic nephropathy comprising measuring the expression of Smad1” (HUBIT GENOMIX INC., priority 2003, dated 2016).
# Test system: Smad1
# Experiment: Smad1 morpholino antisense oligonucleotide in AGEs-treated mesangial cells (Smad1 and Col4 expression)
# Format: cell-based, mouse
# Details: for AGEs-mediated overproduction (overexpression) of Col4: mesangial cells treated with AGEs; for AGEs-mediated induction of Smad1: mesangial cells, 72 hr AGEs then 16 hr with oligo
# Procedure: A glomerular mesangial cell strain was established from glomeruli isolated from normal, 4 week-old mice (C57BL/6JxSJL/J), and was identified according to the method previously described (S1). The mesangial cells were cultured in B medium (a 3:1 mixture of minimal essential medium/F12 modified with trace elements) supplemented with 1 mM glutamine, 100 units/ml penicillin, […] streptomycin and 20% fetal calf serum. The cultured cells fulfilled the criteria generally accepted for glomerular mesangial cells (S2). AGEs or BSA exposure was carried out as described previously (S3).
# Mesangial cells were cultured in the presence of AGEs or BSA (as control) for 72 hours. Cells were harvested in sample buffer, resolved by SDS-polyacrylamide gel electrophoresis and transferred to nitro-cellulose membrane and subjected to Western blot using a 1:500 dilution of anti-Smad1 antibody and anti-pSmad1 antibody (Santa Cruz Biotechnology), followed by detection using an enhanced chemiluminescence detection system (Invitrogen, Carlsbad, Calif.).
# Cultured cells were fixed in 4% paraformaldehyde. The following antibodies were used: anti-Smad1 antibody, 1:100 (Santa Cruz Biotechnology); anti-pSmad1 antibody, 1:100 (Calbiochem). An appropriate fluoresceine isothiocyanate-conjugated secondary antibody was used for visualization and imaging was done using a laser microscope and a fluorescent microscope (Olympus, Tokyo, Japan).
# The antisense oligonucleotide used was a 25-nucleotide morpholino oligo (Genetools LLC, Philomath, Oreg.). The sequence is 5′-[…]-3′ (SEQ ID NO: 13). As a control, an oligo with the base composition 5′-CAtGCTcGTCACATTCAaAGCcGCT-3′ (SEQ ID NO: 18) was used. In vitro RNA transcription was performed as previously described (S7).
Substance,AGEs-mediated overproduction (overexpression) of Col4,AGEs-mediated induction of Smad1
"Smad1 mismatch oligo: control oligo 5′-CAtGCTcGTCACATTCAaAGCcGCT-3′ (SEQ ID NO: 18) (CATGCTCGTCACATTCAAAGCCGCT; listed as DNA, chemistry not given here)",no effect,not
"antisense oligo to Smad1: 25-nucleotide morpholino oligo, 5′-CAAGCTGGTCACATTCATAGCGGCT-3′ (SEQ ID NO: 13) (all phosphorodiamidate morpholino (PMO))",remarkably attenuates,completely abolished
